Drawing on ChEMBL document CHEMBL1142580, “Malettinins B-D: new polyketide metabolites from an unidentified fungal colonist of Hypoxylon Stromata (NRRL 29110)” (2005), this text covers zone of inhibition for 2 compounds.

Type in all cases: functional
Holding throughout (details): read-out: IZ

Test [1] has as its system Candida albicans. Briefly: Antimicrobial activity against Candida albicans ATCC 90029 at 250 ug/disk by standard disk assay.
Test [2] concerns Staphylococcus aureus. Briefly: Antimicrobial activity against Staphylococcus aureus ATCC 29213 at 200 ug/disk by standard disk assay.
Test [3] has as its system Bacillus subtilis. Nature of the test: Antimicrobial activity against Bacillus subtilis ATCC 6051 at 200 ug/disk by standard disk assay.

For `Cc1cc(=O)c(O)cc2c1C[C@@H](C)[C@@]1(OC[C@@H](C)[C@H]1O)O2` [MALETTININ C], the zone of inhibition at 250 µg/disc in test [1] is 13 mm. Besides, the results for the zone of inhibition at 200 µg/disc in test [2] and in test [3] were 12 mm and 15 mm, respectively.
As to `Cc1cc(=O)c(O)cc2c1C[C@@H](C)[C@]1(OC[C@@H](C)[C@H]1O)O2` [MALETTININ B], in test [1], the zone of inhibition at 250 µg/disc was 19 mm. The results for the zone of inhibition at 200 µg/disc in test [2] and in test [3] were 24 mm and 26 mm, respectively.
